# Data published in patent US10487089B2, “Imaging agents and methods of identifying same” (The Trustees of the University of Pennsylvania, priority 2014, dated 2019).
# “Also recorded” adds a separate entry of the source.
# How the values were obtained:
# [1] = Photophysical properties (absorption, emission, extinction coefficient, quantum yield); assay type: physicochemical
# Description: n-Butyllithium in hexanes was purchased from Acros and titrated with diphenylacetic acid, which was recrystallized from toluene. All other reagents were purchased from Sigma Aldrich and used without further purification. Solvents were purchased from either Sigma Aldrich or Fisher Scientific. Anhydrous solvents were purchased from Fisher Scientific and dried by passing through an alumina column of a solvent purification system. Silica gel (230-400 mesh) used for column chromatography was purchased from Silicycle. Thin layer chromatography plates (250 μm thickness) were purchased from Sorbent Technologies. Revered-phase column chromatography was done using a RediSep Rf Gold C18 column on a Teledyne Isco CombiFlash Rf system. High-performance liquid chromatography (HPLC) was performed on a Jasco HPLC system using a Phenomenex column (Luna 5u C18(2) 100A; 250×4.60 mm, 5 micron). UV absorption spectra were obtained on a Jasco V-650 spectrophotometer using a 1 cm path length quartz cuvette. Fluorescence emission spectra were taken on a Horiba Jobin-Yvon FluoroLog using a 1 cm path length fluorescence quartz cuvette. ^1H-NMR and ^13C-NMR were recorded on either a Bruker DMX 500 (500 MHz) or a Bruker AVII 500 (500 MHz). High-resolution mass spectrometry was performed using a Waters LCT Premier XE Mass Spectrometer (model KE 332). […] was performed using a Bruker APEX2-DUO CCD X-ray Diffractometer. Photoreactions were carried out in a Rayonet Photochemical Reactor (model RPR-100). Quantum yield was determined by serial dilution method using coumarine 153 (in ethanol, Φ=0.38) and fluorescein (in NaOH 0.1 M, Φ=0.95) as standards (Yvon, A guide to recording Fluorescence Quantum Yields, http://www.horiba.com/fileadmin/uploads/Scientific/Documents/Fluorescence/quantumyie ldstrad.pdf, accessed Jul. 13, 2014; Brouwer, 2011, Pure Appl. Chem. 83: 2213-2228)
# HeLa cells [2] = assay: Confocal microscopy of stained live HeLa cells (subcellular localization, cell permeability); settings: confocal microscopy
# Description: Confocal microscopy was done on a Yokogawa spinning disk inverted microscope with a 100× lens. Each batch of stained cells was imaged by exciting with a 488 nm laser while observing at 503-545 nm (the green overlay images), exciting with a 561 nm laser while observing at 583-650 nm (the red overlay images), and by DIC (the grey images) (FIG. 8).
# A 444 nm excitation was required to image with compounds 2 and 3 (FIG. 18).
# [3] = Stability of aqueous solution under ambient light (HPLC); assay type: physicochemical; settings: 1 mM in water, 25° C., 10 days
# Description: The stability of 1 mM aqueous solution of 11-E/11-Z was assessed under ambient light conditions at 25° C. for 10 days. […] HPLC chromatograms of compounds 11-E/11-Z and 12 can be seen in FIGS. 57 and 58.
# HeLa cells [4] = assay: Cytotoxicity studies, Alamar Blue cell viability; assay type: cell-based; settings: HeLa cells, 24, 48, and 72 hours; 5 μM 11-E/11-Z, 1 μM MitoTracker Red FM
# Description: In a 96-well plate, HeLa cells were plated at 5,000 cells/well in culture media as described above (50 μL/well) and incubated at 37° C. in a humidified atmosphere with 5% CO2. After 24 hours, cells were treated with 11-E/11-Z (final concentration was 5 μM), MitoTracker Red FM (final concentration was 1 μM), and DMSO (vehicle control for MitoTracker). For wells treated with MitoTracker and DMSO, DMSO concentration was kept at 1%. Untreated cells were used as vehicle control for 11-E/11-Z. Final volumes were 100 μL/well. Cells were incubated at 37° C. in 5% CO2 for 24, 48, or 72 hours. Alamar Blue (10 μL) was added 2 hours prior to fluorescence measurement. Fluorescence was measured at 560 nm excitation and 590 nm emission. Vehicle control was taken as 100% cell viability.
# HeLa cells [5] = assay: Intracellular photoactivation of 11-E/11-Z to 12 in live HeLa cells; assay type: cell-based; settings: 200 alternating 150 ms pulses, one phase exponential fit
# Description: A Leica DM4000 spinning disk confocal microscope equipped with a 100×1.4 NA oil immersion objective was used in FIGS. 3A and 3B. In FIG. 3A, two channels were used. The first channel has 444 nm excitation wavelength and 525 nm emission wavelength (emission bandpass filter, bandwidth=36 nm). The second channel has 488 nm excitation wavelength and 632 nm emission wavelength (emission bandpass filter, bandwidth=60 nm). The two channels were used alternatingly to carry out 200 150-ms pulses. In FIG. 46B, selective activation was carried out by short pulse (about 1 second) using a 405 nm laser (CrystaLaser, DL405-050-O) controlled by the iLas2 module in Metamorph. All image processing was done using ImageJ. All curve fitting was done using Prism.
# By combining the observed photoreaction (FIG. 44A) and the ability to selectively label mitochondria for live cell imaging (FIG. 45A), intracellular photoactivation of 11-E/11-Z was attempted. The roughly 100 nm red-shifted absorbance and emission spectra of 12 compared to 11-E/11-Z allowed for selective excitation of individual species. […] A significant increase in the intensity of […] was achieved after 30 seconds, using 200 total scans (FIG. 46A, 46B). […] Immediately after the first activation, a bright signal was detected at the targeted region (box 1). […]
# [6] = test system: mito-GFP cell line (GFP localized to the outer mitochondria membrane); assay: Colocalization with GFP-labeled mitochondria in mito-GFP HeLa cells; assay type: cell-based
# Description: For live cell imaging, HeLa cells and HeLa cells expressing a mitochondrial outer membrane targeting domain from Listeria monocytogenes (ActA, C-terminal 47 amino acids) fused to a HaloTag-GFP construct (Ballister et al., 2014, Nat. Commun. 5: 4575) were used. Cells were cultured in a 60 mm culture dish using Life Technologies Dulbecco's Modified Eagle Medium (DMEM) media with phenol red, 10% Fetal Bovine Serum and 1% penicillin-streptomycin at 37° C. in a humidified atmosphere with 5% CO2. The cells were detached with 0.05% trypsin-EDTA and transferred to a 35 mm glass bottom poly-D-lysine coated dish 2-5 days before imaging with about 2 mL of the above-mentioned media. A 5 mM solution of 11-E/11-Z in MiliQ water and a 1 mM solution of MitoTracker Red FM in DMSO were prepared. Two microliter of each solution was mixed with 2 mL new media and added to the cells after the old media was removed. After incubation (3 hours to overnight for 11-E/11-Z and 1 hour for MitoTracker Red FM), the excess dyes were washed twice with non-phenol red DMEM before imaging. The cells were kept in 2 mL non-phenol red DMEM during imaging.
# A Leica TCS SP8 confocal microscope equipped with a 63×/1.4 NA oil immersion objective lens was used in FIG. 2A, 3E, S2, S3, and S4. To selectively observe 11-E/11-Z, the excitation wavelength of 405 nm and the emission wavelength range of 620-650 were used. To selectively observe MitoTracker Red FM, the excitation wavelength of 638 nm and the emission wavelength range of 650-700 were used. To selectively observe GFP, the excitation wavelength of 488 nm and the emission wavelength range of 500-550 were used.
# Photoproduct 12 is red-shifted in both absorbance and emission by approximately 100 nm while retaining a large Stokes shift of 108 nm (FIG. 44C). […]
# Incubating mito-GFP cells with 11-E/11-Z allowed colocalization to be assessed (FIGS. 45A and 54).
smiles,measurement,setting,value
C[n+]1cccc2c1/C(=C1\c3ccccc3Oc3cccnc31)c1ccccc1O2 (racemic) [11-E/11-Z],Stokes shift,[1],135 nm
same,Abs λmax,[1]; in water,408 nm
same,Em λmax,[1]; in water,543 nm
same,extinction coefficient ε,[1]; solvent: water,11040 M⁻¹ cm⁻¹
same,quantum yield Φ,[1]; solvent: water,0.021
same,staining specificity / subcellular localization,HeLa cells [2],consistent with mitochondrial uptake; also recorded: near exclusive mitochondrial localization
same,stability of aqueous solution under ambient light,[3],No decomposition or photoproduct; also recorded: no evidence for decomposition or photoconversion
same,cytotoxicity,HeLa cells [4],very low cytotoxicity
same,"rate constant, 444/525 channel",HeLa cells [5],0.060 s⁻¹
same,"rate constant, 488/632 channel",HeLa cells [5],0.030 s⁻¹
same,Manders' overlap coefficient (first),[6],0.98±0.01
same,Manders' overlap coefficient (second),[6],1.00±0.00
same,Spearman correlation with GFP,[6]; 80 cells,0.88±0.02
